One block for each substance: values may come before it. No end group written: not given here.
Columns and labels:
[1] = tested on: IgGs of different species (mouse, donkey, rabbit and sheep); test: assay akin to ELISA with peptide SA-HRP complexes on IgGs of animal species; assay type: binding; conditions: biotinylated synthetic peptide complexed to SA-HRP, sheep IgG
Experimental: (§1) The binding activity of the described biotinylated synthetic peptides to different immunoglobulins was evaluated using an assay akin to ELISA. Wells were coated with the different subclasses of human IgGs or human intravenous immunoglobulins. All the wells were blocked with BSA. A biotinylated synthetic peptide and horseradish peroxidase (HRP)-conjugated streptavidin (SA-HRP) were mixed in advance at molar ratio of 4:1 to formulate tetrameric (peptide)4 SA-HRP complexes and then the mixtures were added to individual wells. After washing, the (peptide)4 SA-HRP complexes were detected with TMB solution.
Additionally, the binding activity of the synthetic peptide SEQ ID NO: 2 to immunoglobulins of different animal species (mouse, rabbit, donkey, and sheep) was evaluated by an assay akin to ELISA essentially as described above. Peptides SEQ ID NO: 184 and SEQ ID NO: 185 represent two control biotin-labelled synthetic peptides with unrelated amino acids sequences.

[2] = tested on: human IgGs of different subclasses (IgG1, IgG2, IgG3 and IgG4); test: phage ELISA on subclasses of native human IgGs; assay type: binding; conditions: peptide displayed on phage as P3 fusion
Experimental: (§2) Wells of a 96-well microplate (Nunc, Maxisorp) were either coated with human Fc fragment solution or streptavidin as negative control. The wells were blocked with BSA and contacted with amplified population of each individual clone. Bound phages were detected by the addition of horseradish peroxidase (HRP)-conjugated anti-M13 monoclonal antibodies using the chromogenic substrate (3,3′,5,5′-tetramethylbenzidine (TMB)) solution, and absorbance at 450 nm was measured.
(§3) The binding activity of phage clone displaying the minimized peptide SEQ ID NO: 2, was further evaluated by phage ELISA (as described above) using different subclasses of native human IgGs and different therapeutic monoclonal antibodies. BSA, avidin and SA were used as targets in negative control wells.

human Fc fragment = test: surface plasmon resonance (BIAcore X100), peptide immobilized via streptavidin; assay type: binding; conditions: 25° C; Fc 10-160 nM, single cycle
Experimental: Interaction between the synthetic biotinylated peptide ligand with amino acid sequence identical to SEQ ID NO: 2 and human Fc fragment was analyzed by surface plasmon resonance (SPR) using BIAcoreX100 (BIAcore) at 25° C. Biotinylated synthetic peptide of the present invention was immobilized to the matrix indirectly through streptavidin. Streptavidin (SA) was immobilized to the surface of CM-5 chip through random amine coupling according to the manufacturer's recommendations to achieve a stable response corresponding to approximately 4000 resonance units. The first cell surface was prior activated and deactivated and used as a reference cell during injections. After successful covalent immobilization of SA to dextran matrix via amino groups, a 120 nM solution (pH 5) of biotinylated synthetic peptide SEQ ID NO: 2 was injected over a sensor chip SA to immobilize the peptide onto the chip. The amount of immobilized peptide was adjusted to the stable response corresponding to approximately 200 RU. Subsequently, solutions of human Fc fragment (the analyte) of various concentrations (10 nM, 20 nM, 40 nM, 80 nM, and 160 nM) in running buffer (0.005% P20 in PBS) were injected at a flow rate of 10 μL/min at through flow cells in a manner known as single cycle. Binding reaction between human Fc fragment and the peptide was recorded. […]

BSA, avidin and SA = test: phage ELISA on negative control targets; assay type: binding; conditions: peptide displayed on phage
Experimental: as §2, §3

[3] = tested on: therapeutic monoclonal antibodies; test: phage ELISA on therapeutic monoclonal antibodies; assay type: binding; conditions: peptide displayed on phage as P3 fusion
Experimental: as §2, §3

[4] = tested on: human IgG subclasses (IgG1, IgG2, IgG3 and IgG4) and human intravenous immunoglobulins; test: assay akin to ELISA with (peptide)4 SA-HRP complexes on human IgGs; assay type: binding; conditions: for binding of biotinylated synthetic peptides to human IgGs: C-terminal linker SEQ ID NO: 181 biotinylated, tetrameric (peptide)4 SA-HRP complexes; for binding compared with the parental peptide SEQ ID NO: 2: biotinylated synthetic peptides, (peptide)4 SA-HRP complexes, human IgGs
Experimental: as §1

[5] = tested on: human IgG Fc fragment and native human IgGs; test: pull-down assay with peptide-coated streptavidin paramagnetic beads; conditions: versus parent peptide SEQ ID NO: 2
Experimental: Selected peptides (SEQ ID NO: 2, SEQ ID NO: 30, and SEQ ID NO: 26) with biotin attached via epsilon-amino group of C-terminal amidated lysine in added linker SEQ ID NO: 181 were synthesized and coupled to streptavidin-coated paramagnetic beads. The same paramagnetic beads without addition of peptide and the same paramagnetic beads coupled with unrelated biotinylated peptide SEQ. ID 185 were used as negative controls. First, the Fc fragment of human antibodies (2 μg) was spiked into PBS and incubated with peptide-coated paramagnetic beads. The beads were then pelleted, washed with 0.1% PBST, and the bound material was eluted with acidic buffer (0.2 M glycine/HCl, pH 2.2). The low pH eluate was immediately neutralized with 1M Tris/HCl, pH 9.1. The eluates obtained from pull-down assay were analyzed by DotBlot assay and Western blotting using polyclonal goat anti-human IgG (H+L) HRP conjugate for detection (results not shown). Equivalent pull-down assay was carried out also from serum free DMEM growth medium spiked with human Fc fragment (2 μg) with peptide SEQ ID NO: 2 (FIG. 11). Additionally, the pull-down assay was also made from intact human sera. The presence of human IgGs in the eluate was confirmed by Coomassie blue staining (FIG. 13) and Western blot analysis (FIG. 12) using HRP-conjugated goat anti-human (H+L) antibodies (BioRad).

human IgG Fc fragment [6] = test: competitive phage FLISA with Staphylococcal protein A; assay type: binding
Experimental: SpA is known to interact specifically with the region at the CH2-CH3 interface of immunoglobulins. Wells of the black Nunc MaxiSorp microtiter plate were either coated with human IgG Fc fragment or left uncoated (controls). Wells were blocked with BSA and contacted with purified fluorescein-labelled phage clone (the labelling procedure was adapted from the instructions of FITC manufacturer, Sigma-Aldrich). Phage was allowed to compete for the Fc binding with SpA in concentrations 1 μM, 100 nM or 10 nM. After 1 h-incubation at room temperature, the content was discarded and wells were washed with 0.1% PBST and finally filled with PBS. Fluorescence intensities in individual wells were measured at 510 nm upon excitation at 485 nm. The experiment was performed in triplicate.

human IgG Fc fragment [7] = test: phage ELISA of phage-displayed peptides on human Fc fragment; assay type: binding; conditions: peptide displayed on phage; absorbance at 450 nm
Source text: Three different phage display libraries were subjected to separate panning processes according to the protocol known to one skilled in the art. Various Fc-binding peptides were selected by targeting biotin-conjugated human Fc fragment prepared by random biotinylation of amine residues using EZ-Link™ Sulfo-NHS-SS-Biotin (Thermo Fisher Scientific, Rockford, IL, USA). After three rounds of affinity selection, individual clones were picked for phage Enzyme Linked Immuno-Sorbent Assay (ELISA) in order to evaluate their Fc fragment binding ability.
as §2
The experiment was performed in triplicate.
In order to investigate the contribution of individual amino acid residues of the truncated peptide SEQ ID NO: 2 to the Fc binding, alanine scanning strategy was carried out. […] However, we determined specific positions where alanine substitutions were well tolerated in terms of preserving binding activity. […]

binding to IgGs of different animal species [1]: specifically bound
binding to human IgG subclasses (phage ELISA) [2]: strongly bound
binding of human Fc to immobilized peptide (SPR) (human Fc fragment): exhibited binding to human Fc
binding to negative controls (phage ELISA) (BSA, avidin and SA): no significant binding
binding to tested therapeutic monoclonal antibodies (phage ELISA) [3]: strongly bound
binding of biotinylated synthetic peptides to human IgGs [4]: specifically bound to human IgGs
Substance: GSYWYQVWF (H-GSYWYQVWF; not fully specified (C-terminus)) [SEQ ID NO: 2]
dissociation rate (SPR) (human Fc fragment): slow

binding of biotinylated synthetic peptides to human IgGs [4]: specifically bound to human IgGs
binding compared with the parental peptide SEQ ID NO: 2 [4]: significantly increased binding
Substance: GSYWYDVWF (not fully specified (C-terminus)) [SEQ ID NO: 26]
trapping efficiency in pull-down assay [5]: significantly higher than the parent peptide SEQ ID NO: 2

binding of biotinylated synthetic peptides to human IgGs [4]: specifically bound to human IgGs
binding compared with the parental peptide SEQ ID NO: 2 [4]: significantly increased binding
Substance: GSYWYEVWF (not fully specified (C-terminus)) [SEQ ID NO: 30]

Further lines, the substance ahead of its results:

Substance: AGNGSYWYQVWF [SEQ ID NO: 1]
binding site on Fc fragment relative to SpA (human IgG Fc fragment [6]; inferred from competition with SpA): at least partially overlap
relative binding of phage clones to human IgG Fc (phage ELISA) (human IgG Fc fragment [7]): strongest binding phage clone

Substance: SpA: Staphylococcal protein A; cell wall constituent protein derived from Staphylococcal aureus [reference compound]
inhibition of binding of FITC-labelled phage clone SEQ ID NO: 1 to immobilized human IgG Fc (human IgG Fc fragment [6]; SpA 1 μM, 100 nM or 10 nM, 1 h room temperature): the higher the concentration of SpA added, the more effectively is binding of the phage clone to human IgG Fc fragment inhibited

From patent publication US12195512B2, “Affinity ligands for antibody Fc region” (Univerza v Ljubljani, priority 2018, dated 2025)
